Source: article PMC4858680, “A platinum-based hybrid drug design approach to circumvent acquired resistance to molecular targeted tyrosine kinase inhibitors” (Scientific Reports, 2016)
Where two headings read alike, the source gives them in different places.

How the values were obtained:
Type in all cases: binding
[1] = biological target: T1, TEC (Homo sapiens, UniProt P42680); settings: for remaining binding at 10 µM: read-out: Percent control
T1 construct: purchased DiscoveRx (KINOMEscan service)
T1 sequence (P42680 1-631): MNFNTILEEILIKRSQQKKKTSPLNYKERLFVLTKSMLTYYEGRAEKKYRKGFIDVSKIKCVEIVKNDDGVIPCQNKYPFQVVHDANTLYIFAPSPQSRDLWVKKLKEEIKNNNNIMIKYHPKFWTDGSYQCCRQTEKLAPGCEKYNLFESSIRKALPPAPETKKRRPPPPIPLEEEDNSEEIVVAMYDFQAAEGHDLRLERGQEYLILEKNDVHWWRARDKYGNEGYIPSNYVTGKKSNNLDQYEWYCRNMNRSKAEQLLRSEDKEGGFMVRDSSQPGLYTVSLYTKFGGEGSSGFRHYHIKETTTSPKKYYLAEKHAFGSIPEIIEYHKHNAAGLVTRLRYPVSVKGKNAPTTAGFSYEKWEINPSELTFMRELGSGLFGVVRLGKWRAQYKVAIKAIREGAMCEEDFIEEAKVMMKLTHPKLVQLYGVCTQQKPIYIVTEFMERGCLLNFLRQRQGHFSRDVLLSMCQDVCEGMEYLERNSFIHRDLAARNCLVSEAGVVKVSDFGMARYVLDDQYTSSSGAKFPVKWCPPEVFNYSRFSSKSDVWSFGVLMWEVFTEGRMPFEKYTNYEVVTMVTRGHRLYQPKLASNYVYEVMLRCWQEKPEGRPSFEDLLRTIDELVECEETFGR

[2] = biological target: T2, INSR (Homo sapiens, UniProt P06213); settings: for remaining binding at 10 µM: read-out: Percent control
T2 construct: purchased DiscoveRx KINOMEscan

[3] = biological target: T3, TNK2 (Homo sapiens, UniProt Q07912); settings: for remaining binding at 10 µM: read-out: Percent control
T3 construct: purchased DiscoveRx (KINOMEscan service)

[4] = biological target: T4, MUSK (Homo sapiens, UniProt O15146); settings: for remaining binding at 10 µM: read-out: Percent control
T4 construct: purchased DiscoveRx KINOMEscan
T4 sequence (O15146 24-869): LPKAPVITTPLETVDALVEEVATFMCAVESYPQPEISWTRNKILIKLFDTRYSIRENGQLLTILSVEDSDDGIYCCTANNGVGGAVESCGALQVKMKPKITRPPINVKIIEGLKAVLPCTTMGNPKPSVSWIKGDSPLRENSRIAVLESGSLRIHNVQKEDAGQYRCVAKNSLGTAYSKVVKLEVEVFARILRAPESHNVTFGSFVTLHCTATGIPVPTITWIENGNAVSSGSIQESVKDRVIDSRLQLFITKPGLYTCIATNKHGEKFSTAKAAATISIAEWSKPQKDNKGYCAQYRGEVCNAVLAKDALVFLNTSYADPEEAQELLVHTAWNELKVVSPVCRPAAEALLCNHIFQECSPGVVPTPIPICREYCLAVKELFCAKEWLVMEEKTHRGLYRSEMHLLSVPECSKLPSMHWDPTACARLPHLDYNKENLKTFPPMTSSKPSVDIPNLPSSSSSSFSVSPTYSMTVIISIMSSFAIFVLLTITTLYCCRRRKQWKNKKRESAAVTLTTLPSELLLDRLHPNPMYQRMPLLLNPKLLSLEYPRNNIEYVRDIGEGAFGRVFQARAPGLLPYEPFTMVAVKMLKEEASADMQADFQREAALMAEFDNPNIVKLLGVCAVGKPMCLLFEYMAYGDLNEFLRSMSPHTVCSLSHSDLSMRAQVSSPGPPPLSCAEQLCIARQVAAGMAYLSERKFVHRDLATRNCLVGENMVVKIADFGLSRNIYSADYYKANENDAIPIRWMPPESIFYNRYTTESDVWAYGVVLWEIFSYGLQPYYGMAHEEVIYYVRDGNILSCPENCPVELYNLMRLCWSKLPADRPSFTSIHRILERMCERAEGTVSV

[5] = biological target: T5, IGF1R (Homo sapiens, UniProt P08069); settings: for remaining binding at 10 µM: read-out: Percent control
T5 construct: purchased DiscoveRx KINOMEscan

[6] = biological target: T6, ERBB3 (Homo sapiens, UniProt P21860); settings: for Percent control: ERBB3, 10 μM; for remaining binding at 10 µM: read-out: Percent control
T6 construct: purchased DiscoveRx KINOMEscan

[7] = biological target: T7, BLK (Homo sapiens, UniProt P51451); settings: for Percent control: BLK, 10 μM; for remaining binding at 10 µM: read-out: Percent control
T7 construct: purchased DiscoveRx KINOMEscan

[8] = biological target: T8, MERTK (Homo sapiens, UniProt Q12866); settings: for remaining binding at 10 µM: read-out: Percent control
T8 construct: purchased DiscoveRx KINOMEscan
T8 sequence (Q12866 21-999): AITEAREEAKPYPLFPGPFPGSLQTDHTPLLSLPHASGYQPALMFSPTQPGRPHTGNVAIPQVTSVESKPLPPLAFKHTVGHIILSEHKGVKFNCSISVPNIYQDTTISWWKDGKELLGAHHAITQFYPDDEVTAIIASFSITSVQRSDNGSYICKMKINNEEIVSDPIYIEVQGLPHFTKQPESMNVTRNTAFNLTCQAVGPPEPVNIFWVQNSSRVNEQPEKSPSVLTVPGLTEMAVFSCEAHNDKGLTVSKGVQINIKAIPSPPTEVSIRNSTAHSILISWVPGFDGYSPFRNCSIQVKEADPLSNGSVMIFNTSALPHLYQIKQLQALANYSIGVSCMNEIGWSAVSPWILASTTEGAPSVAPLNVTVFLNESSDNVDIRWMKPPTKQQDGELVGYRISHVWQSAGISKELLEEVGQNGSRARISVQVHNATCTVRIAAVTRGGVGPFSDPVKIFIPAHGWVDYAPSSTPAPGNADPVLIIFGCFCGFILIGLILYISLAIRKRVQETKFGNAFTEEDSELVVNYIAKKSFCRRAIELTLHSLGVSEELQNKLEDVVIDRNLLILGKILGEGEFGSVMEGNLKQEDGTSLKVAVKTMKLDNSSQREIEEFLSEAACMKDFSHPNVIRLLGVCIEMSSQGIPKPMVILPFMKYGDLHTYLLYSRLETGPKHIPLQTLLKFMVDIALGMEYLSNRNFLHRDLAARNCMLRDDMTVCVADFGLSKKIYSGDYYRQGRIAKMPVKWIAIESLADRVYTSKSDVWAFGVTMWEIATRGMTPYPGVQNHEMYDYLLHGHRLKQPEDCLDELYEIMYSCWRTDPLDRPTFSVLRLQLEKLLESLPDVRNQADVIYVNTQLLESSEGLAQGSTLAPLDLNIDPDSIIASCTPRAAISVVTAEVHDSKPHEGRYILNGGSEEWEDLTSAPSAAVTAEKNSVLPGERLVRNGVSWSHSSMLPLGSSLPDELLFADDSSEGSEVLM

[9] = biological target: T9, BRK (Homo sapiens, UniProt Q13882); settings: for Percent control: BRK, 10 μM; for remaining binding at 10 µM: read-out: Percent control
T9 construct: purchased DiscoveRx KINOMEscan

[10] = biological target: T10, FGFR4 (Homo sapiens, UniProt P22455); settings: for remaining binding at 10 µM: read-out: Percent control
T10 construct: purchased DiscoveRx KINOMEscan
T10 sequence (P22455 22-802): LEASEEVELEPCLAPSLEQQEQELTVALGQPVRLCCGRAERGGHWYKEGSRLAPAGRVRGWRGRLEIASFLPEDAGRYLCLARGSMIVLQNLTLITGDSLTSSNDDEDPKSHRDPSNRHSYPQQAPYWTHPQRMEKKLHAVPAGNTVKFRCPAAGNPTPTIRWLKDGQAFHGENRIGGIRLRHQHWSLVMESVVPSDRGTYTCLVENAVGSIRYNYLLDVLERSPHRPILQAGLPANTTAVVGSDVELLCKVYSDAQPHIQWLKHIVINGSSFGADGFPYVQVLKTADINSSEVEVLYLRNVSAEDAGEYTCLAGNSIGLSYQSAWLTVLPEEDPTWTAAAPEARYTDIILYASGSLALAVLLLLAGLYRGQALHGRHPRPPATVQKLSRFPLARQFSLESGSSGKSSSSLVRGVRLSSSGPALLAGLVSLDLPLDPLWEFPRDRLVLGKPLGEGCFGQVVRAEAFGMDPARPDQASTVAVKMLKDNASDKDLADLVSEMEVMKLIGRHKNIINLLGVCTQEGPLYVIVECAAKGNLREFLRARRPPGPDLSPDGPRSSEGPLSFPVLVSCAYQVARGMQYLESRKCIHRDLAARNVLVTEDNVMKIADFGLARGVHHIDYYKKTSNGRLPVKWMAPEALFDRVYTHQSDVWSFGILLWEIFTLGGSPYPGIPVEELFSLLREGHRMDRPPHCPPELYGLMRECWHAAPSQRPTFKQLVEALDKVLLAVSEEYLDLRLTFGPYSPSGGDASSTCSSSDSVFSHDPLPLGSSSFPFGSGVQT

T9 sequence (Q13882 whole entry): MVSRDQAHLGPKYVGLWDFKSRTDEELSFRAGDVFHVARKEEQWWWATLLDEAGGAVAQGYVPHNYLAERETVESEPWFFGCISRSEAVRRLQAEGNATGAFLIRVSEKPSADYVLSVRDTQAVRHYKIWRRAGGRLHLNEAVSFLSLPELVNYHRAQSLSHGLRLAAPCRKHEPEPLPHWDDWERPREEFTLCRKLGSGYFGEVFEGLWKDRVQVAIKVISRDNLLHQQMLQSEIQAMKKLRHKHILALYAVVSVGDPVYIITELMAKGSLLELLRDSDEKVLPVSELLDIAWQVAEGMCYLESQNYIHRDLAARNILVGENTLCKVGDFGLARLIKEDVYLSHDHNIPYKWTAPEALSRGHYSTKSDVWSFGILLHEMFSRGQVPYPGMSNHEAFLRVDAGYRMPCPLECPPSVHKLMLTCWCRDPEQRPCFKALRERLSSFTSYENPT
T6 sequence (P21860 20-1342): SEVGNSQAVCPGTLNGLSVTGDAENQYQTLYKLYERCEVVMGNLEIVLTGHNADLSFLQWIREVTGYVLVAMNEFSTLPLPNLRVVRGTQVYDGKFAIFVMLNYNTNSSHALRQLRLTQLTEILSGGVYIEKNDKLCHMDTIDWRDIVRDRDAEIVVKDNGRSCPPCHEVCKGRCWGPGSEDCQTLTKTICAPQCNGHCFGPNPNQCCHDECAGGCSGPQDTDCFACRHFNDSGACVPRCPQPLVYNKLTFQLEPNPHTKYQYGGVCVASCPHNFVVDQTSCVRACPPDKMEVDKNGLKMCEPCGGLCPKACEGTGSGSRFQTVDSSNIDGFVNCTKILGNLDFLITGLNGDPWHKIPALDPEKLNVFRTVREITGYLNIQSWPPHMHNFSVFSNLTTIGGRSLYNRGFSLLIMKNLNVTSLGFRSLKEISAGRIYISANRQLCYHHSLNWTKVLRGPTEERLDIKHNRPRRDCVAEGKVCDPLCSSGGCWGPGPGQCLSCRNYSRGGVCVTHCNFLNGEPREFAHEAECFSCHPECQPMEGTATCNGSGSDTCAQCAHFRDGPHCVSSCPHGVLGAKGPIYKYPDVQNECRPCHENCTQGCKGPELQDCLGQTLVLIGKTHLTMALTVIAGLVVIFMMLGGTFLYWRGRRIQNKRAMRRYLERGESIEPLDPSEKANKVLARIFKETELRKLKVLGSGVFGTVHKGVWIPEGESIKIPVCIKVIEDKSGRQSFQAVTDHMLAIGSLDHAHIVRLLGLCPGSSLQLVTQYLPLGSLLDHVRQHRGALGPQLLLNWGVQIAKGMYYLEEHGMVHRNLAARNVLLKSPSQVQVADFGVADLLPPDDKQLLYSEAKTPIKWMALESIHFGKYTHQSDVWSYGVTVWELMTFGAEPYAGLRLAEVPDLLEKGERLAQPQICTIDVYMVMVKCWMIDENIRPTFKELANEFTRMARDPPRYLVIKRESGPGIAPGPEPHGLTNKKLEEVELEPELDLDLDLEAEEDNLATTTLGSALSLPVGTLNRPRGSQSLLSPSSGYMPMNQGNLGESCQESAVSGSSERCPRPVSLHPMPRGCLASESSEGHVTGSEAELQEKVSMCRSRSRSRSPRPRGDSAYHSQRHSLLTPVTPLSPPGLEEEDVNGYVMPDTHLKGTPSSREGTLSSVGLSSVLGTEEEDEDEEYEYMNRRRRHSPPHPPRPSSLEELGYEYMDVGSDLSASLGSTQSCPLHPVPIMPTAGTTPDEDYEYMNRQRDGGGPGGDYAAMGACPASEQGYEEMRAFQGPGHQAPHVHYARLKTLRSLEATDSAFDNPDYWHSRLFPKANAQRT
T5 sequence (P08069 31-1367): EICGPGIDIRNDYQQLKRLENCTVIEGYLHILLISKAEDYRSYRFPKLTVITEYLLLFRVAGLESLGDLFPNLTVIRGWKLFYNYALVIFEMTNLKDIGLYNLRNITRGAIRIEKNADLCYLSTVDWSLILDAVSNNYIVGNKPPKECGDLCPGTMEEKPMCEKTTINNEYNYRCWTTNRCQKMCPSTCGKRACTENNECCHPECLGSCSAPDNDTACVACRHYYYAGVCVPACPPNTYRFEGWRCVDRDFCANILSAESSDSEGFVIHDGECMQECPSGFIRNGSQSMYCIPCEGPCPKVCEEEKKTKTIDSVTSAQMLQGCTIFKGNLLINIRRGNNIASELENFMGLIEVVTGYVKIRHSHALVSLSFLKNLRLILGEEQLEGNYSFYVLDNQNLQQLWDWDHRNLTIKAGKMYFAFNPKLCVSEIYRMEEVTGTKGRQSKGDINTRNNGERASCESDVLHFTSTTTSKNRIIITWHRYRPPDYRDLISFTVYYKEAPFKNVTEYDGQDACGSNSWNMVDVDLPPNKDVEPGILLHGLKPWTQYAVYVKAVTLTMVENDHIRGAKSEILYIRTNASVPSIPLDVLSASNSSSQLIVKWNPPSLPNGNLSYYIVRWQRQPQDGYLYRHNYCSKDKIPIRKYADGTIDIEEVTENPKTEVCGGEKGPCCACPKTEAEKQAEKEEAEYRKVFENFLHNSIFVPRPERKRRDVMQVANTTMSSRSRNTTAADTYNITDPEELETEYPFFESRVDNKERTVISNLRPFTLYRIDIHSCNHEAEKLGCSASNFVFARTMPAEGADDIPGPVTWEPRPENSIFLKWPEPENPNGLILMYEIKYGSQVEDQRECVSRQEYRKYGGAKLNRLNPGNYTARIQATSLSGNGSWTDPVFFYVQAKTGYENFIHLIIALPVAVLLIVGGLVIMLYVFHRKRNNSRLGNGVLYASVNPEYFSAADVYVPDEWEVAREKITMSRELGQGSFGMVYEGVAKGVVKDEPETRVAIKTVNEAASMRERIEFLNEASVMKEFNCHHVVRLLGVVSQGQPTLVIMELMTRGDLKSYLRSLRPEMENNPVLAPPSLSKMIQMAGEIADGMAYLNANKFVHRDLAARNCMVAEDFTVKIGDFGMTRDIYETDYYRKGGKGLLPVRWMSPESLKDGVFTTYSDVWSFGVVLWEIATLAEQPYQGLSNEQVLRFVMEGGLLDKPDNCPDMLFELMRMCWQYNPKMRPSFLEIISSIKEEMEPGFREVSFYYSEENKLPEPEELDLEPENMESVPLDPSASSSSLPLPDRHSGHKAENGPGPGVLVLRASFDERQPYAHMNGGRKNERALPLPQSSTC
T7 sequence (P51451 whole entry): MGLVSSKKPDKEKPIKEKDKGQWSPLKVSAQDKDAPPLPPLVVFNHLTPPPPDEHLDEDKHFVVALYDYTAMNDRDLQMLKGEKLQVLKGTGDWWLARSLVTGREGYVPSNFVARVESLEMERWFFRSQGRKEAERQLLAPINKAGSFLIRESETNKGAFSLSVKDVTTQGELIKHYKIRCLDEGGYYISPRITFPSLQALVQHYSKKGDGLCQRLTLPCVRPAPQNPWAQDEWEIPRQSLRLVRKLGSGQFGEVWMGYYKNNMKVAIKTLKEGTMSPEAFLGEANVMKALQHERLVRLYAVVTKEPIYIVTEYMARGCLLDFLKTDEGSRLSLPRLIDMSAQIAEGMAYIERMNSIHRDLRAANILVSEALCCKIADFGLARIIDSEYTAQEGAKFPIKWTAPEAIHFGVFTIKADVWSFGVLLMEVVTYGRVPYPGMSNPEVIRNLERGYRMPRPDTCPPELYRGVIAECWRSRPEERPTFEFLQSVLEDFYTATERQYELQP

Row | SMILES | Percent control ([1]; TEC, 10 μM) | Percent control ([2]; INSR, 10 μM) | Percent control ([3]; TNK2, 10 μM) | Percent control ([4]; MUSK, 10 μM) | Percent control ([5]; IGF1R, 10 μM) | Percent control [6] | Percent control [7] | Percent control ([8]; MERTK, 10 μM) | Percent control [9] | Percent control ([10]; FGFR4, 10 μM) | remaining binding at 10 µM ([3]; TNK2, 10 μM) | remaining binding at 10 µM [6] | remaining binding at 10 µM [7] | remaining binding at 10 µM [9] | further results
1 | Cc1ccc(NC(=O)c2ccc(CN3CCN(C)CC3)cc2)cc1Nc1nccc(-c2cccnc2)[n+]1[Pt-2]1([Cl])[NH2+]C2CCCCC2[NH2+]1 (stereo not drawn) [1b, oxaliplatin-imatinib] | 100% | 92% | 100% | 100% | 100% | 100% | 12% | 100% | 93% | 94% | – | – | – | – | –
2 | C#Cc1cccc(Nc2c3cc(OCCOC)c(OCCOC)cc3nc[n+]2[Pt@SP2-2]([NH3+])([NH3+])[Cl])c1 [2a, cisplatin-erlotinib] | 72% | 85% | – | 97% | 86% | 100% | 41% | 100% | 89% | 99% | – | – | – | – | Percent control [3]: 100
3 | COc1cc2c(Nc3ccc(Br)cc3F)[n+]([Pt-2]3([Cl])[NH2+]C4CCCCC4[NH2+]3)cnc2cc1OCC1CCN(C)CC1 (stereo not drawn) [3b, oxaliplatin-vandetanib] | 100% | 72% | 100% | 95% | 100% | 4.1% | 1.4% | 17% | 27% | 97% | – | – | – | – | –
4 | C#Cc1cccc(Nc2ncnc3cc(OCCOC)c(OCCOC)cc23)c1 [Erlotinib] | – | – | – | – | – | – | – | – | – | – | 100% | 9.9% | 1.9% | 100% | remaining binding at 10 µM [1]: 100%; remaining binding at 10 µM [2]: 100%; remaining binding at 10 µM [4]: 100%; remaining binding at 10 µM [5]: 100%; remaining binding at 10 µM [8]: 8.9%; remaining binding at 10 µM [10]: 100%
5 | Cc1ccc(NC(=O)c2ccc(CN3CCN(C)CC3)cc2)cc1Nc1nccc(-c2cccnc2)n1 [Imatinib, reference compound] | 100% | 100% | 100% | 100% | 100% | 100% | 4.9% | 100% | 100% | 100% | – | – | – | – | –
6 | COc1cc2c(Nc3ccc(Br)cc3F)ncnc2cc1OCC1CCN(C)CC1 [Vandetanib, reference compound] | – | – | – | – | – | – | – | – | – | – | 100% | 1.6% | 0.7% | 1.6% | remaining binding at 10 µM ([1]; TEC, 10 μM): 100%; remaining binding at 10 µM ([2]; INSR, 10 μM): 100%; remaining binding at 10 µM ([4]; MUSK, 10 μM): 100%; remaining binding at 10 µM ([5]; IGF1R, 10 μM): 100%; remaining binding at 10 µM ([8]; MERTK, 10 μM): 12.3%; remaining binding at 10 µM ([10]; FGFR4, 10 μM): 18.7%
